IC50 data for 19 compounds are collected here from US9630914B2, “Multitarget FAAH and COX inhibitors and therapeutical uses thereof” (FONDAZIONE ISTITUTO ITALIANO DI TECNOLOGIA, priority 2012, dated 2017).

Where two headings read alike, the source gives them in different places.

Holding throughout (type): biochemical
One assay deals with ovine COX-1 (Ovis aries (Sheep), UniProt P05979). The experiment in a line: In vitro COX assay (COX Inhibitor Screening Assay Kit), COX-1. The settings on record: 5 μM arachidonic acid. The method, then: (§1) COX activity was measured using a commercial kit (COX Inhibitor Screening Assay Kit—Cayman Chemical N. 560131) which includes both ovine COX-1 and human recombinant COX-2 enzymes. Inhibitors were pre-incubated with either ovine COX-1 or human COX-2 in order to screen isozyme-specific inhibition. Differently than described in the kit protocol, the reaction was carried out in the presence of 5 μM arachidonic acid while for the blank sample (no activity) the two enzymes were inactivated for 40 minutes at 100° C. It was then measured the amount of PGF2α produced by reduction with SnCl2 of COX-derived PGH2, via enzyme immunoassay (EIA) using a PG-specific antibody and competing with a PG-acetylcholinesterase conjugate.
(§2) Absorbance was measured at 412 nm with a Tecan Infinite M200 plate reader and data were processed according to manufacturer's instructions.
(§3) The median inhibitory concentrations (IC50) were determined by non-linear regression analysis of the Log [concentration]/response curves generated with mean replicate values using a four parameter Hill equation curve fitting with GraphPad Prism 5 (GraphPad Software Inc., CA-USA).

A further assay has as its target Rat FAAH (Rattus norvegicus (Rat), UniProt P97612). The experiment in a line: In vitro rat FAAH radiometric assay. The settings on record: rat brain homogenate; means of ≧3 experiments in duplicate. How it is done: In Vitro Rat FAAH Radiometric Assay
Rat FAAH was prepared from male Sprague Dawley rat brains, homogenized in a potter in 20 mM of Tris HCl pH 7.4, 0.32 M sucrose.
After 10 minutes of pre-incubation with test compounds, the reaction was started by adding of 50 μL of substrate and incubating for 30 min at 37° C. The substrate was prepared in assay buffer in order to achieve the final concentration of 1 μM arachidonoyl ethanolamide (Cayman Chemical N. 90050) and 0.6 nM anandamide [ethanolamine-1-^3H](American Radiolabeled Chemicals Inc., ART. 0626, conc. 1 mCi/mL, S.A. 60 Ci/mmol). The reaction was stopped by adding cold 1:1 CHCl3/MeOH. After 10 minutes of centrifugation (845×g at 4° C.) 600 μL of aqueous phase were transferred into scintillation vials previously filled with 3 mL of scintillation fluid (Ultima Gold™, Perkin Elmer Inc., Cat. 6013329). Radioactivity was measured by liquid scintillation counting (MicroBeta2 LumiJET Perkin Elmer Inc.).
as §3

The next assay addresses human FAAH-1 (Homo sapiens (Human), UniProt O00519). The assay can be described thus: In vitro human FAAH fluorescent assay. The settings on record: human FAAH-1 membrane preparation from HEK-293; means of ≧3 experiments. The method, then:
In Vitro Human FAAH Fluorescent Assay
Human recombinant FAAH was obtained from a HEK-293 FAAH-1 overexpressing stable cell line. Cells were grown in DMEM medium containing 10% FBS, 1% pen/strep, 1% glutamine and 500 μg/mL G418. To obtain membrane preparation cells were scraped off with cold phosphate-buffered saline (PBS) and collected by centrifugation (500×g, 10 minutes, 4° C.); the cell pellet was re-suspended in 20 mM Tris-HCl pH 7.4, 0.32 M sucrose, disrupted by sonication (10 pulses, 5 times) and centrifuged (800×g, 15 minutes, 4° C.); the collected supernatant was centrifuged at 105,000×g for 1 h at 4° C. and the pellet was re-suspended in PBS.
The background (no activity) samples were prepared using 180 μL of assay buffer without human FAAH-1 and 10 μL of DMSO. The reaction was then started by the addition of 10 μL of substrate (AMC arachidonyl amide, N. 10005098, Cayman Chemical) dissolved in ethanol and used at a final concentration of 2 μM. The reaction was carried out for 30 minutes at 37° C. and fluorescence was measured with a Tecan Infinite M200 nanoquant plate reader (excitation wavelength 350 nm/emission wavelength 460 nm).
as §3

A further assay has as its target human recombinant COX-2 (Homo sapiens (Human), UniProt P35354). The experiment in a line: In vitro COX assay (COX Inhibitor Screening Assay Kit), COX-2. The method, then:
as §1, §2, §3

Setting [1] is: 5 μM arachidonic acid, read-out: human COX-2 IC50.

Chain of ovine COX-1 (P05979 25-600): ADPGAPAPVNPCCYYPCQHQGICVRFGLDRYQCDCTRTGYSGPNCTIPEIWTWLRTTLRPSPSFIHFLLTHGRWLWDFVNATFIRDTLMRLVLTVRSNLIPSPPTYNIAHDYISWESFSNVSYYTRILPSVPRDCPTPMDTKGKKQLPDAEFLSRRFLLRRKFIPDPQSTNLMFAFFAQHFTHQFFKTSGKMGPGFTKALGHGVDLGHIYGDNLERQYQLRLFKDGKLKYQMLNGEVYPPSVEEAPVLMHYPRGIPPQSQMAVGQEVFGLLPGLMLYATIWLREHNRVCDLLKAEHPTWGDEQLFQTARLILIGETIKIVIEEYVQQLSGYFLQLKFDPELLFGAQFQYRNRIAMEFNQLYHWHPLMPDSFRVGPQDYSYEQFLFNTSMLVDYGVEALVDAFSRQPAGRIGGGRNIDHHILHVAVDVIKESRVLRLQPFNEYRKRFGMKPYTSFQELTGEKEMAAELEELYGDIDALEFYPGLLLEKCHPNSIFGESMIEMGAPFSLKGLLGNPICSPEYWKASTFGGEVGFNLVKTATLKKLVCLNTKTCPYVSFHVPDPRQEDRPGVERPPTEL
Chain of Rat FAAH (P97612 whole entry): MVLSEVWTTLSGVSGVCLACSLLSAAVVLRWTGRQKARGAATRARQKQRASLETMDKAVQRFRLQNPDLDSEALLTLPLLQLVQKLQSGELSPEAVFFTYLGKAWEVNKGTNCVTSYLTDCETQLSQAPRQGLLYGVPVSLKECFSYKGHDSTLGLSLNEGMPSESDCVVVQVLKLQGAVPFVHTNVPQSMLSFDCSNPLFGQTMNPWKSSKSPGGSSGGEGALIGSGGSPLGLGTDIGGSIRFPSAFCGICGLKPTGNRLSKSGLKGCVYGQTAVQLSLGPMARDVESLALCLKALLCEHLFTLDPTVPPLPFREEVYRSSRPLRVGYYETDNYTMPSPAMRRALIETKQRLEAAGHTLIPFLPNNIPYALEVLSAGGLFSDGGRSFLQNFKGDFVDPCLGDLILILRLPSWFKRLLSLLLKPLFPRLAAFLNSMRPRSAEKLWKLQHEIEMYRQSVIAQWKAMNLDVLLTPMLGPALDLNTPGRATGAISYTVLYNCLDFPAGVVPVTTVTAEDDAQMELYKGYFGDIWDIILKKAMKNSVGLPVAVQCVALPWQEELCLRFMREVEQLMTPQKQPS
Chain of human FAAH-1 (O00519 whole entry): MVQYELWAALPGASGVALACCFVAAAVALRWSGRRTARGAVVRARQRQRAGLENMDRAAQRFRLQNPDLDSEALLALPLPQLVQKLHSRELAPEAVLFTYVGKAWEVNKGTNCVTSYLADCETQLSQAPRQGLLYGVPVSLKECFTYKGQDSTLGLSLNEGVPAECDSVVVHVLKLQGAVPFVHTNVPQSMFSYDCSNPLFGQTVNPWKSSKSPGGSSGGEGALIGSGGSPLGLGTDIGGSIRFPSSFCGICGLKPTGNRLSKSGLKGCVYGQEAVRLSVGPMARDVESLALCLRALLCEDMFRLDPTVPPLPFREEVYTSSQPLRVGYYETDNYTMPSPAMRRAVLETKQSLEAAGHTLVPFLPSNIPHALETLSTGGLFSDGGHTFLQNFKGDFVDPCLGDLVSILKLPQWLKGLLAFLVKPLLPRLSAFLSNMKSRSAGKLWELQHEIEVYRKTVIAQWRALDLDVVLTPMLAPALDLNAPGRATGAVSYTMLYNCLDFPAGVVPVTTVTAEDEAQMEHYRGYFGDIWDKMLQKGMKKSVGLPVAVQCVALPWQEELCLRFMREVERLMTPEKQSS
Chain of human recombinant COX-2 (P35354 18-604): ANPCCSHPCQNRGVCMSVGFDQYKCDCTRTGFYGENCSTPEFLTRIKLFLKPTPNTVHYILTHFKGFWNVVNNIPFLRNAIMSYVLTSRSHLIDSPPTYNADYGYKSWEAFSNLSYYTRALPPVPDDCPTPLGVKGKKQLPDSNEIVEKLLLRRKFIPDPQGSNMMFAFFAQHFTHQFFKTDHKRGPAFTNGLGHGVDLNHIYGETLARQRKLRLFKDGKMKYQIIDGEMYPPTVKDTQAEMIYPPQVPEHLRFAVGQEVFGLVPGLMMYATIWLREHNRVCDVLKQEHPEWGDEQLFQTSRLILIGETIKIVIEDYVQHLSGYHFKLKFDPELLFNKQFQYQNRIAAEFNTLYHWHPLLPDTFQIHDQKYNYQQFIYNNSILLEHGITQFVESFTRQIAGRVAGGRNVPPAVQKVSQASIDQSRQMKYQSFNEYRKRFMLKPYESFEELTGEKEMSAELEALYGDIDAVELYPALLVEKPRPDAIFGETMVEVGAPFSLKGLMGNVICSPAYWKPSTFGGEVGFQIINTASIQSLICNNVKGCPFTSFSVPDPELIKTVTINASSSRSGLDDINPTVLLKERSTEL

`CCCCCCNC(=O)Oc1cccc(-c2ccc(C(C)C(=O)O)cc2F)c1` (single isomer, unassigned; (+)) [Example 20, (+)-2-[3-fluoro-4-[3-(hexylcarbamoyloxy)phenyl]phenyl]propanoic acid] registered an IC50 at ovine COX-1 of 0.01 nM.
With `CCCCCCNC(=O)Oc1cccc(-c2ccc(C(C)C(=O)O)cc2F)c1` (single isomer, unassigned; (-)) [Example 19, (−)-2-[3-fluoro-4-[3-(hexylcarbamoyloxy)phenyl]phenyl]propanoic acid], the IC50 on ovine COX-1 is 13000 nM.
Regarding `CC(C(=O)O)c1ccc(-c2cccc(OC(=O)NC3CCCCC3)c2)c(F)c1` (stereo not shown) [Example 1, 2-[4-[3-(cyclohexylcarbamoyloxy)phenyl]-3-fluoro-phenyl]propanoic acid], the IC50 against Rat FAAH was 8200 nM; on human FAAH-1, 1800 nM; at ovine COX-1, 7900 nM; on human recombinant COX-2, above 30 µM.
In the same order, the values of `CC(C(=O)O)c1ccc(-c2cccc(OC(=O)NC3CCCC3)c2)c(F)c1` (stereo not shown) [Example 2, 2-[4-[3-(cyclopentylcarbamoyloxy)phenyl]-3-fluoro-phenyl]propanoic acid] are 4800 nM, 1800 nM, 4400 nM and above 30 µM.
In the same order, the values of `CC(C)CNC(=O)Oc1cccc(-c2ccc(C(C)C(=O)O)cc2F)c1` (stereo not shown) [Example 3, 2-[3-fluoro-4-[3-(isobutylcarbamoyloxy)phenyl]phenyl]propanoic acid] are 5600 nM, 1600 nM, 8200 nM and above 30 µM.
In the same order, the values of `CC(C(=O)O)c1ccc(-c2cccc(OC(=O)NCC3CCCCC3)c2)c(F)c1` (stereo not shown) [Example 4, 2-[4-[3-(cyclohexylmethylcarbamoyloxy)phenyl]-3-fluoro-phenyl]propanoic acid] are 360 nM, 280 nM, 600 nM and above 30 µM.
With `CC(C(=O)O)c1ccc(-c2cccc(OC(=O)NCCC3CCCCC3)c2)c(F)c1` (stereo not shown) [Example 5, 2-[4-[3-(2-cyclohexylethylcarbamoyloxyl)phenyl]-3-fluoro-phenyl]propanoic acid], the IC50 against Rat FAAH was determined as 18 nM; at human FAAH-1, 9 nM; at ovine COX-1, 150 nM; at human recombinant COX-2 (setting [1]) it was 11 µM.
With `CC(C(=O)O)c1ccc(-c2cccc(OC(=O)NCc3ccccc3)c2)c(F)c1` (stereo not shown) [Example 6, 2-[4-[3-(benzylcarbamoyloxy)phenyl]-3-fluoro-phenyl]propanoicacid], the IC50 is 4200 nM on Rat FAAH, 7200 nM at human FAAH-1, 1300 nM against ovine COX-1 and above 30 µM on human recombinant COX-2.
As to `CC(C(=O)O)c1ccc(-c2cccc(OC(=O)NCCc3ccccc3)c2)c(F)c1` (stereo not shown) [Example 7, 2-[3-fluoro-4-[3-(phenethylcarbamoyloxy)phenyl]phenyl]propanoic acid], the IC50 is 170 nM against Rat FAAH, 70 nM on human FAAH-1, 6300 nM against ovine COX-1 and above 30 µM at human recombinant COX-2.
In the case of `CC(C(=O)O)c1ccc(-c2cccc(OC(=O)NCCCc3ccccc3)c2)c(F)c1` (stereo not shown) [Example 8, 2-[3-fluoro-4-[3-(3-phenylpropylcarbamoyloxyl)phenyl]phenyl]propanoic acid], the IC50 on Rat FAAH was 90 nM; against human FAAH-1, 22 nM; on ovine COX-1, 580 nM; on human recombinant COX-2 (setting [1]), 6.2 µM.
As to `CC(C(=O)O)c1ccc(-c2cccc(OC(=O)NCCCCc3ccccc3)c2)c(F)c1` (stereo not shown) [Example 9, 2-[3-fluoro-4-[3-(4-phenylbutylcarbamoyloxyl)phenyl]phenyl]propanoic acid], the concentration for half-maximal inhibition (IC50) against Rat FAAH is 27 nM; on human FAAH-1, 13 nM; on ovine COX-1, 3700 nM; at human recombinant COX-2, above 30 µM.
For `CCCCNC(=O)Oc1cccc(-c2ccc(C(C)C(=O)O)cc2F)c1` (stereo not shown) [Example 10, 2-[4-[3-(butylcarbamoyloxy)phenyl]-3-fluoro-phenyl]propanoic acid], the IC50 at Rat FAAH was 7000 nM; against human FAAH-1 it was 1500 nM; against ovine COX-1, 260 nM; on human recombinant COX-2, above 30 µM.
In the case of `CCCCCNC(=O)Oc1cccc(-c2ccc(C(C)C(=O)O)cc2F)c1` (stereo not shown) [Example 11, 2-[3-fluoro-4-[3-(pentylcarbamoyloxy)phenyl]phenyl]propanoic acid], the IC50 on Rat FAAH is 570 nM; against human FAAH-1, 92 nM; at ovine COX-1, 20 nM; on human recombinant COX-2 (setting [1]), 0.16 µM.
In the same order, the values of `CCCCCCCNC(=O)Oc1cccc(-c2ccc(C(C)C(=O)O)cc2F)c1` (stereo not shown) [Example 13, 2-[3-fluoro-4-[3-(heptylcarbamoyloxy)phenyl]phenyl]propanoic acid] are 11 nM, 6 nM, 370 nM and 0.32 µM.
The like results for `CCCCCCCCNC(=O)Oc1cccc(-c2ccc(C(C)C(=O)O)cc2F)c1` (stereo not shown) [Example 14, 2-[3-fluoro-4-[3-(octylcarbamoyloxy)phenyl]phenyl]propanoic acid] were, in that order, 2.6 nM, 4 nM, 990 nM and 29 µM.
As for `CCCCCCNC(=O)Oc1cccc(-c2ccc(C(C)CO)cc2F)c1` (stereo not shown) [Example 15, [3-[2-fluoro-4-(2-hydroxy-1-methyl-ethyl)phenyl]phenyl]N-hexylcarbamate], the IC50 against Rat FAAH was 3.3 nM; at human FAAH-1, 9.1 nM; against ovine COX-1, 1100 nM; at human recombinant COX-2, above 30 µM.
`CCCCCCNC(=O)Oc1cccc(-c2ccc(CC(=O)O)cc2F)c1` [Example 16, 2-[3-fluoro-4-[3-(hexylcarbamoyloxy)phenyl]phenyl]acetic acid]: the IC50 against Rat FAAH came out at 63 nM; at human FAAH-1, 16 nM; at ovine COX-1, 2100 nM; on human recombinant COX-2 (setting [1]), 0.24 µM.
For `CCCCCCNC(=O)Oc1ccccc1-c1ccc(C(C)C(=O)O)cc1F` (stereo not shown) [Example 17, 2-[3-fluoro-4-[2-(hexylcarbamoyloxy)phenyl]phenyl]propanoic acid], the IC50 is 2200 nM against Rat FAAH, 740 nM at human FAAH-1, 720 nM at ovine COX-1 and above 30 µM on human recombinant COX-2.
As to `CCCCCCOC(=O)Nc1cccc(-c2ccc(C(C)C(=O)O)cc2F)c1` (stereo not shown) [Example 18, 2-[3-fluoro-4-[3-(hexoxycarbonylamino)phenyl]phenyl]propanoic acid], the concentration for half-maximal inhibition (IC50) on Rat FAAH was 15000 nM; against human FAAH-1, 21000 nM; against ovine COX-1, 30 nM; on human recombinant COX-2 (setting [1]), 0.17 µM.
